Patent US20050130989A1, “N-arylheteroaromatic products compositions containing them and use thereof” (Aventis Pharma S. A., priority 2003, published 2005)
Counter-ions that a name gives are not always drawn.

target: T1, tubulin (Sus scrofa, UniProt P02550+P02554); test: Evaluation of the inhibition of tubulin polymerization (turbidimetry); assay type: biochemical, pig; settings: tubulin 10 μm (1 mg/ml), 37° C., turbidity at 350 nm; concentration that inhibits the rate of polymerization by 50%; read-out: Inhibition of tubulin polymerization IC 50 (μm)
T1 construct: Tubulin is purified from pig brain according to published methods; from tissue; host or cells: pig brain
T1 sequence (P02550 whole entry): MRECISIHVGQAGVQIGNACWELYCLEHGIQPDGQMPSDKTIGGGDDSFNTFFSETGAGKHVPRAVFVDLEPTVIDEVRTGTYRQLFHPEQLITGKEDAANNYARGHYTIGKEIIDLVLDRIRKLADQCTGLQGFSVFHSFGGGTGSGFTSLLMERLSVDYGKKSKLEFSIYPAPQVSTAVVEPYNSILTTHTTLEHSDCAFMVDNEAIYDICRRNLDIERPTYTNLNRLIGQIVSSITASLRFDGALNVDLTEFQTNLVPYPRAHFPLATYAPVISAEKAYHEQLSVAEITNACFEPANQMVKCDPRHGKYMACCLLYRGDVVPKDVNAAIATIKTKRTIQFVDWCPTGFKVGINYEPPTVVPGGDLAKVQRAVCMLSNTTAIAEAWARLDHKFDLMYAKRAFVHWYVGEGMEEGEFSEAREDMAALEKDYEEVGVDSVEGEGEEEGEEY
T1 sequence (P02554 whole entry): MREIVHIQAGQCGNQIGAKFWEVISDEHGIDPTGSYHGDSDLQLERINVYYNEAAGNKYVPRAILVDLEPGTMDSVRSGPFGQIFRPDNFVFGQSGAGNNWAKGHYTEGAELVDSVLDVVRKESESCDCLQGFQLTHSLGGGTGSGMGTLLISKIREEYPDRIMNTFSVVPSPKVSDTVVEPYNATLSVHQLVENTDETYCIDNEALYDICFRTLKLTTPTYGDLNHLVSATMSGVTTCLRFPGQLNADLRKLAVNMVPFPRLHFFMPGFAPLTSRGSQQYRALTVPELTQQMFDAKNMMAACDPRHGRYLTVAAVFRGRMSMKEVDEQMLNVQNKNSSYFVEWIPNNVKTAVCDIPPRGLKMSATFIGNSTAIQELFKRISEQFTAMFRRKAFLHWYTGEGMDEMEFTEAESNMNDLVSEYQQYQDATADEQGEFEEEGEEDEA
Procedure: Tubulin is purified from pig brain according to published methods (Shelanski et al., 1973, Proc. Natl. Acad. Sci. USA, 70, 765-768. Weingarten et al., 1975, Proc. Natl. Acad. Sci. USA, 72, 1858-1862). Briefly, the brains are ground and centrifuged in an extraction buffer. The tubulin contained in the supernatant of the extract undergoes two successive cycles of polymerization at 37° C. and depolymerization at 4° C., before being separated from the MAPs (Microtubule Associated Proteins) by chromatography on a phosphocellulose P11 column (Whatman). The tubulin thus isolated is more than 95% pure. It is stored in a buffer known as RB/2 30% glycerol, the composition of which is 50 mM MES-NaOH [2-(N-morpholino)ethanesulfonic acid], pH 6.8; 0.25 mM MgCl2; 0.5 mM EGTA; 30% glycerol (v/v), 0.2 mM GTP (guanosine-5′-triphosphate).
The polymerization of tubulin to microtubules is monitored by turbidimetry as follows: the tubulin is adjusted to a concentration of 10 μm (1 mg/ml) in RB/2 30% glycerol buffer to which 1 mM GTP and 6 mM MgCl2 are added. The polymerization is triggered by an increase in temperature from 6° C. to 37° C. in a cuvette with an optical path length of 1 cm, placed in a UVIKON 931 spectrophotometer (Kontron) equipped with a thermostatically maintained cuvette holder. The increase in the turbidity of the solution is monitored at 350 nm.
The products are dissolved at 10 mM in DMSO and added at variable concentrations (0.5 to 10 μm) to the tubulin solution before polymerization. The IC50 value is defined as the concentration of product that inhibits the rate of polymerization by 50%.

IC50 [µM]	Molecule
1.3	Cc1cc(C(=O)N2CCN(c3cccc(OC(F)F)c3)CC2)n(-c2ccccc2)n1 [Example E136, [4-(3-Difluoromethoxyphenyl)piperazin-1-yl](5-methyl-2-phenyl-2H-pyrazol-3-yl)methanone hydrochloride]
0.8	COC(=O)/C=C/c1cc(C(=O)N2CCN(c3cc(OC)cc(OC)c3)CC2)n(-c2ccccc2)n1 [Example E126, Methyl E-3-{5-[4-(3,5-dimethoxyphenyl)piperazine-1-carbonyl]-1-phenyl-1H-pyrazol-3-yl}acrylate]
4.1	CCC(O)c1cc(C(=O)N2CCN(c3cc(OC)cc(OC)c3)CC2)n(-c2ccccc2)n1 (stereo not shown) [Example E125, [4-(3,5-Dimethoxyphenyl)piperazin-1-yl][5-(1-hydroxypropyl)-2-phenyl-2H-pyrazol-3-yl]methanone]
20	COc1ccc(-n2nc(C)cc2C(=O)N2CCN(c3ccccc3)CC2)cc1 [3/1]
< 25	COc1cc(OC)cc(N2CCN(C(=O)c3cc(C(O)c4ccccc4)nn3-c3ccccc3)CC2)c1 (stereo not shown) [Example E131, [4-(3,5-Dimethoxyphenyl)piperazin-1-yl][5-(hydroxyphenylmethyl)-2-phenyl-2H-pyrazol-3-yl]methanone]
21	Cc1cc(C(=O)N2CCN(c3ccc(C)c(C)c3)CC2)n(-c2ccc(F)cc2)n1 [3/103]
3	CSc1ccccc1N1CCN(C(=O)c2cc(C)nn2-c2ccccc2)CC1 [3/12]
1	NC(=O)c1cccc(N2CCN(C(=O)c3ccnn3-c3ccccc3)CC2)c1 [Example E133, 3-[4-(2-Phenyl-2H-pyrazole-3-carbonyl)piperazin-1-yl]benzamide]
4.2	COc1cccc(-n2nc(C)cc2C(=O)N2CCN(c3ccccc3SC)CC2)c1 [3/137]
3.5	Cc1ccc(C)c(N2CCN(C(=O)c3cc(C)nn3-c3ccccc3)CC2)c1 [3/108]
12.5	Cc1cc(C(=O)N2CCN(c3cc(Cl)ccc3C)CC2)n(-c2cccc(Cl)c2)n1 [3/70]
< 25	COc1ccccc1N1CCN(C(=O)c2cc(C)nn2-c2ccc(C)cc2)CC1 [3/130]
0.9	COc1cc(OC)cc(N2CCN(C(=O)c3cc(N4CCC4)nn3-c3ccccc3)CC2)c1 [Example E129, [5-(Azetidin-1-yl)-2-phenyl-2H-pyrazol-3-yl][4-(3,5-dimethoxyphenyl)piperazin-1-yl]methanone]
1.55	Cc1ccc(C)c(-n2nc(C)cc2C(=O)N2CCN(c3cccc(Cl)c3)CC2)c1 [Example E47, [4-(3-Chlorophenyl)piperazin-1-yl][2-(2,5-dimethylphenyl)-5-methyl-2H-pyrazol-3-yl]methanone]
18	O=C(c1cc(CSc2ccccc2)nn1-c1ccccc1)N1CCN(c2cccc(Cl)c2)CC1 [Example E102, [4-(3-Chlorophenyl)piperazin-1-yl](2-phenyl-5-phenylsulfanylmethyl-2H-pyrazol-3-yl)methanone]
7	Cc1cc(C(=O)N2CCN(c3cc(Cl)ccc3C)CC2)n(-c2ccc(F)cc2)n1 [3/117]
20	CCOc1ccccc1N1CCN(C(=O)c2cc(C)nn2-c2cccc(C)c2)CC1 [3/115]
3.2	N-{{3-{[4-(3,5-Dimethoxyphenyl)piperazin-1-yl]carbonyl}-2-phenyl-2H-pyrazin-5-yl}glycine tert-butyl ester [Example E137]
17.9	COc1cc(OC)cc(N2CCN(C(=O)c3cc(CN)nn3-c3ccccc3)CC2)c1 [Example E120, (5-Aminomethyl-2-phenyl-2H-pyrazol-3-yl)[4-(3,5-dimethoxyphenyl)piperazin-1-yl]methanone]
12.9	COc1cc(OC)cc(N2CCN(C(=O)c3cc(-c4ccsc4C=O)nn3-c3ccccc3)CC2)c1 [Example E114, 3-{5-[4-(3,5-Dimethoxyphenyl)piperazine-1-carbonyl]-1-phenyl-1H-pyrazol-3-yl}thiophene-2-carboxaldehyde]
2.9	COc1cc(OC)cc(N2CCN(C(=O)c3c(F)c(F)nn3-c3ccccc3)CC2)c1 [Example E139, [4-(3,5-dimethoxyphenyl)piperazin-1-yl](4,5-difluoro-2-phenyl-2H-pyrazol-3-yl)methanone]
20	COC(=O)CCC(=O)Nc1cccc(N2CCN(C(=O)c3cc(C)nn3-c3ccccc3)CC2)c1 [Example E83, Methyl N-{3-[4-(5-methyl-2-phenyl-2H-pyrazole-3-carbonyl)piperazin-1-yl]-phenyl}succinamate]

IC50 [µM]	Molecule
2.5	COc1cc(OC)cc(N2CCN(C(=O)c3cc(COCCF)nn3-c3ccccc3)CC2)c1 [Example E123, [4-(3,5-Dimethoxyphenyl)piperazin-1-yl][5-(2-fluoroethoxymethyl)-2-phenyl-2H-pyrazol-3-yl]methanone]
2.3	COc1cc(OC)cc(N2CCN(C(=O)c3cc(C(C)O)nn3-c3ccccc3)CC2)c1 (stereo not shown) [Example E127, [4-(3,5-Dimethoxyphenyl)piperazin-1-yl][5-(1-hydroxyethyl)-2-phenyl-2H-pyrazol-3-yl]methanone]
2	COc1cccc(N2CCN(C(=O)c3cc(C)nn3-c3ccccc3)CC2)n1 [Example E8, [4-(6-Methoxypyrid-2-yl)piperazin-1-yl](5-methyl-2-phenyl-2H-pyrazol-3-yl)-methanone]
12.5	Cc1cc(C(=O)N2CCN(c3ccccn3)CC2)n(-c2ccccc2)n1 [3/107]
17.1	COc1cc(OC)cc(N2CCN(C(=O)c3cc(Br)nn3-c3ccc(Br)cc3)CC2)c1 [Example E81, [5-Bromo-2-(4-bromophenyl)-2H-pyrazol-3-yl][4-(3,5-dimethoxyphenyl)-piperazin-1-yl]methanone]
20.2	Cc1cc(C(=O)N2CCN(c3cccc(Cl)c3)CC2)n(-c2ccc([N+](=O)[O-])cc2)n1 [Example E49, [4-(3-Chlorophenyl)piperazin-1-yl][5-methyl-2-(4-nitrophenyl)-2H-pyrazol-3-yl]-methanone]
0.8	Cc1cccc(-n2nc(C)cc2C(=O)N2CCN(c3cccc(C)c3C)CC2)c1 [3/114]
9.2	COCOCc1cc(C(=O)N2CCN(c3cccc(C(N)=O)c3)CC2)n(-c2ccccc2)n1 [Example E113, 3-[4-(5-Methoxymethoxymethyl-2-phenyl-2H-pyrazole-3-carbonyl)piperazin-1-yl]benzamide]
3.5	O=C(c1cc(Br)nn1-c1ccc(Br)cc1)N1CCN(c2cccc(Cl)c2)CC1 [Example E64, [5-Bromo-2-(4-bromophenyl)-2H-pyrazol-3-yl][4-(3-chlorophenyl)piperazin-1-yl]methanone]
3	CCOC(=O)/C=C/c1cc(C(=O)N2CCN(c3cc(OC)cc(OC)c3)CC2)n(-c2ccccc2)n1 [Example E112, Ethyl E-3-{5-[4-(3,5-dimethoxyphenyl)piperazine-1-carbonyl]-1-phenyl-1H-pyrazol-3-yl}acrylate]
12	Cc1cc(C(=O)N2CCN(c3cccc4ccccc34)CC2)n(-c2cccc(Cl)c2)n1 [3/124]
0.5	COc1cc(OC)cc(N2CCN(C(=O)c3cc(CC#N)nn3-c3ccccc3)CC2)c1 [Example E135, (5-Cyanomethyl-2-phenyl-2H-pyrazol-3-yl)[4-(3,5-dimethoxyphenyl)piperazin-1-yl]methanone]
4.3	COc1cccc(-n2nc(C)cc2C(=O)N2CCN(c3ccccc3C)CC2)c1 [3/134]
1.8	COc1ccc(Cl)cc1N1CCN(C(=O)c2cc(C)nn2-c2cccc(Cl)c2)CC1 [3/127]
< 25	COc1cc(OC)cc(N2CCN(C(=O)c3cc(C(O)C4CCCC4)nn3-c3ccccc3)CC2)c1 (stereo not shown) [Example E124, [5-(Cyclopentylhydroxymethyl)-2-phenyl-2H-pyrazol-3-yl][4-(3,5-dimethoxy-phenyl)piperazin-1-yl]methanone]
< 25	Cc1cc(C(=O)N2CCN(c3ccc4c(c3)OCCO4)CC2)n(-c2cccc(F)c2)n1 [3/100]
22	COc1cc(OC)cc(N2CCN(C(=O)c3cc(N4CCCCC4)nn3-c3ccccc3)CC2)c1 [Example E138, [4-(3,5-dimethoxyphenyl)piperazin-1-yl][5-(piperid-1-yl)-2-phenyl-2H-pyrazol-3-yl)methanone]
12.5	Cc1cc(C(=O)N2CCN(c3ccccc3F)CC2)n(-c2ccccc2)n1 [3/111]
7.5	Cc1cc(C(=O)N2CCN(c3cccc(C)c3C)CC2)n(-c2cccc(Cl)c2)n1 [3/122]
0.9	Cc1cc(C(=O)N2CCN(c3cccc(CO)c3)CC2)n(-c2ccccc2)n1 [Example E132, [4-(3-Hydroxymethylphenyl)piperazin-1-yl](5-methyl-2-phenyl-2H-pyrazol-3-yl)methanone]
1.5	C=CCNc1cc(C(=O)N2CCN(c3cc(OC)cc(OC)c3)CC2)n(-c2ccccc2)n1 [Example E130, (5-Allylamino-2-phenyl-2H-pyrazol-3-yl)[4-(3,5-dimethoxyphenyl)piperazin-1-yl]methanone]
